# Measurements reported in patent US10391080B2, “Ketorolac for the treatment of cancer” (Cipla Limited, priority 2016, dated 2019).
# Where two headings read alike, the source gives them in different places.
# Key:
# Type in all cases: cell-based
# [1] = test system: RXF SN12C; assay: In vitro 2D assay, CellTiter-Blue Cell Viability Assay; conditions: Homo sapiens, 96 h treatment
# Protocol: (§1) The objective of this study was to investigate the in-vitro anticancer activity of ketorolac. Antitumor activity was assessed in ten selected renal cancer cell lines by using the CellTiter-Blue Cell Viability Assay. The human renal cancer cell lines RXF 1183L, RXF 1220L, RXF 1781L, RXF 393L, RXF 486L, RXF 786-0, RXF A-498, RXF ACHN, RXF Caki-1 and RXF SN12C were used. RXF 1183L, RXF 1220L, RXF 1781L, RXF 393L and RXF 486L were established at Oncotest from the corresponding human patient-derived xenograft. The cell lines 786-0, A-498, Caki-1 and SN12C were purchased from NCI (National Cancer Institute, Bethesda, Md., USA). ACHN was purchased from ECACC (European Collection of Cell Cultures, Salisbury, UK). Authenticity of cell lines was confirmed at the DSMZ by STR (short tandem repeat) analysis, a PCR based DNA-fingerprinting methodology.
# (§2) Cell lines were routinely passaged once or twice weekly and maintained in culture for up to 20 passages. All cells were grown at 37° C. in a humidified atmosphere with 5% CO2 in RPMI 1640 medium (25 mM HEPES, with L-glutamine, #FG1385, Biochrom, Berlin, Germany) supplemented with 10% (v/v) fetal calf serum (Sigma, Taufkirchen, Germany) and 0.1 mg/mL gentamicin (Life Technologies, Karlsruhe, Germany).
# (§3) Ketorolac was dissolved at a concentration of 60 mM in cell culture media. Starting with this stock solution, dilutions were made using cell culture media resulting in final test concentrations of 12000, 7800, 6000, 4200, 3000, 1800, 600, 420, 180, 60 μM. Precipitation was not observed.
# (§4) The CellTiter-Blue Cell Viability Assay was used according to manufacturer's instructions. Briefly, cells were harvested from exponential phase cultures, counted and plated in 96-well flat-bottom microtiter plates at a cell density of 4,000-12,000 cells/well depending on the cell line's growth rate. After a 24 h recovery period to allow the cells to resume exponential growth, ketorolac was applied at 8 to 10 concentrations in duplicate and treatment continued for 96 h. After 96 h treatment of cells, 20 μL/well CellTiter-Blue® reagent was added. Following an incubation period of up to four hours, fluorescence (FU) was measured by using the Enspire Multimode Plate Reader (excitation λ=531 nm, emission λ=615 nm).
# (§5) For calculations, the mean values of duplicate/quadruplicate (untreated control) data were used. Sigmoidal concentration-response curves were fitted to the data points (T/C values) obtained for each cell line using 4 parameter non-linear curve fit.
# [2] = test system: RXF 1781L; assay: as above; conditions: Homo sapiens, 96 h treatment
# Protocol: as §1, §2, §3, §4, §5
# [3] = test system: RXF ACHN; assay: as above; conditions: Homo sapiens, 96 h treatment
# Protocol: as §1, §2, §3, §4, §5
# [4] = test system: RXF 786-0; assay: as above; conditions: Homo sapiens, 786-O, 96 h treatment
# Protocol: as §1, §2, §3, §4, §5
# [5] = test system: RXF Caki-1; assay: as above; conditions: Homo sapiens, Caki-1, 2D, 96 h treatment
# Protocol: as §1, §2, §3, §4, §5
# [6] = test system: RXF 486L; assay: as above; conditions: Homo sapiens, 96 h treatment
# Protocol: as §1, §2, §3, §4, §5
# [7] = test system: RXF 1220L; assay: as above; conditions: Homo sapiens, 96 h treatment
# Protocol: as §1, §2, §3, §4, §5
# [8] = test system: RXF 1183L; assay: as above; conditions: Homo sapiens, 96 h treatment
# Protocol: as §1, §2, §3, §4, §5
# [9] = test system: RXF 393L; assay: as above; conditions: Homo sapiens, 96 h treatment
# Protocol: as §1, §2, §3, §4, §5
# [10] = test system: RXF A-498; assay: as above; conditions: Homo sapiens, A498, A-498, 2D, 96 h treatment
# Protocol: as §1, §2, §3, §4, §5
# [11] = test system: 10 human tumor xenograft-derived cell suspensions or tumor cell lines of renal cancer; assay: In vitro 3D assay, clonogenic assay, whole panel; conditions: geometric mean of 10 renal tumor models, 3D colony formation
# Protocol: Ketorolac was characterized for its ability to inhibit anchorage independent growth and ex vivo colony formation of tumor cells in semi-solid medium. The compound was tested against 10 human tumor xenograft-derived cell suspensions or tumor cell lines of renal cancer.
# Cell lines were routinely passaged one or twice weekly. […] The percentage of viable cells was determined in a Neubauer-hemocytometer using trypan blue exclusion.
# Tumor xenografts (patient-derived, as well as cell line-derived xenografts) were passaged as subcutaneous xenografts in NMRI nu/nu mice. At a tumor volume of 400-1000 mm^3 tumor-bearing mice were sacrificed and tumors were collected under sterile conditions without delay according to the relevant Oncotest SOPs and the relevant animal welfare guidelines published by the FELASA and the GV-SOLAS. […] The percentage of viable cells was determined in a Neubauer-hemocytometer using trypan blue exclusion. Aliquots of the cells were frozen down, and stored in liquid nitrogen. On each day of an experiment, a frozen aliquot of tumor cells was thawed and used for preparation of assay plates.
# The clonogenic assay was carried out in a 96 well plate format using ultra low attachment plates. […] Every plate included six untreated control wells and drug-treated groups in duplicate at 9 concentrations. […] At the time of maximum colony formation, counts were performed with an automatic image analysis system (Celllnsight NXT, Thermo Scientific). 48 hours prior to evaluation, vital colonies were stained with a sterile aqueous solution of 2-(4-iodophenyl)-3-(4-nitrophenyl)-5-phenyltetrazolium chloride (1 mg/ml, 100 μl/well).
smiles,measurement,setting,value
"O=C(c1ccccc1)c1ccc2n1CCC2C(=O)O (racemic) [Ketorolac, (±)-5-benzoyl-2,3-dihydro-1H-pyrrolizine-1-carboxylic acid]",IC50,[1]; read-out: Absolute IC50,2.44 mM
same,IC50,[1]; read-out: Relative IC50,2.82 mM
same,IC50,[2]; read-out: Absolute IC50,3.82 mM
same,IC50,[2]; read-out: Relative IC50,4.44 mM
same,IC50,[3]; read-out: Absolute IC50,2.8 mM
same,IC50,[3]; read-out: Relative IC50,3.39 mM
same,IC50,[4]; read-out: Absolute IC50,3.25 mM
same,IC50,[4]; read-out: Relative IC50,3.85 mM
same,IC50,[5]; read-out: Absolute IC50,2.79 mM
same,IC50,[5]; read-out: Relative IC50,3.44 mM
same,IC50,[6]; read-out: Absolute IC50,3.15 mM
same,IC50,[6]; read-out: Relative IC50,3.29 mM
same,IC50,[7]; read-out: Absolute IC50,4.77 mM
same,IC50,[7]; read-out: Relative IC50,5.36 mM
same,IC50,[8]; read-out: Absolute IC50,2.4 mM
same,IC50,[8]; read-out: Relative IC50,2.67 mM
same,IC50,[9]; read-out: Absolute IC50,3.14 mM
same,IC50,[9]; read-out: Relative IC50,3.75 mM
same,IC50,[10]; read-out: Absolute IC50,4.75 mM
same,IC50,[10]; read-out: Relative IC50,5.65 mM
same,IC50,"[11]; Homo sapiens, read-out: Absolute IC50, geometric mean",2.04 mM
same,IC50,"[11]; Homo sapiens, read-out: Relative IC50, geometric mean (mean relative IC50)",2.04 mM
same,IC50,"[11]; read-out: Relative IC50, geometric mean (mean relative IC50)",2.08 mM
